Values after ≈ are worked out from the molar mass of the structure shown.
What was measured:
Apis mellifera = settings: acute, mortality
Bibionidae = settings: chronic/long-term; duration: 23 days
Bird = settings: acute; oral; unspecified; mortality
Canidae = settings: Dog Other; for NOAEL: oral, hematological
Colinus virginianus = settings: chronic
Coturnix japonica = settings: acute; oral; M; mortality
Daphnia magna = settings: chronic/long-term; duration: 21 days
Folsomia candida = settings: chronic/long-term; reproduction
Tagia sp. = settings: chronic/long-term; mortality
Typhlodromus pyri = test: LR50; higher = less toxic; settings: not reported; mortality

`COc1cc(OC)nc(NC(=O)NS(=O)(=O)c2ncccc2C(F)(F)F)n1` [Flazasulfuron] was tested, and the LD50 (Apis mellifera; dermal) was > 25.9 µg/piece, the LD50 (Apis mellifera; oral, unspecified) was > 46.3 µg/piece and the NOEC (Bibionidae) was 0.1 mg/L. For the same compound, the LD50 (Bird) was 2120 mg/kg-day, the NOAEL (Canidae; chronic, duration: 1 years) was 2 mg/kg-day and the LEC (Canidae; repeat dose other) was 2 mg/kg-day. For the same compound, the NOAEL (Canidae; subchronic, duration: 90 days) was 2 mg/kg-day, the NOAEL (Colinus virginianus) was 95.9 mg/kg-day and the LD50 (Coturnix japonica) was 995 mg/kg-day. The NOEC (Daphnia magna) was 6.2 mg/L, the NOEC (Folsomia candida) was 125 mg/kg and the LC50 (Oncorhynchus mykiss; acute, duration: 96 hours, mortality) was 22 µg/mL (≈ 54 µM). For the same compound, the NOEC (Oncorhynchus mykiss; chronic/long-term, duration: 21 days) was 5 mg/L, the LD50 (Rattus norvegicus; acute, oral, mortality) was 1320 mg/kg-day and the NOAEL (Rattus norvegicus; chronic, duration: 2 years, other) was 1.3 mg/kg-day. For the same compound, the NOAEL (Rattus norvegicus; reproduction developmental) was 11 mg/kg-day, the NOAEL (Rattus norvegicus; reproduction developmental, body weight) was 100 mg/kg-day and the NOEC (Tagia sp.) was 8 mg/kg. For the same compound, the LR50 (Typhlodromus pyri) was > 50 g/ha.
